Test results taken from US20050233984A1, “Composition for preventing or treating degenerative brain diseases comprising a hydrolysate of ginsenosides” (Digital Biotech Co., Ltd., priority 2002, published 2005).

Key:
synaptophysin = experiment: Synaptic density: synaptophysin in hippocampus and cortex by Western blotting; format: in vivo; conditions: 0.5 mg/kg intraperitoneally once a day for 4 days, C57BL/6 mice
Description: 1 mg/kg of ginsenoside Rc or Mc, or compound Y or K, or 0.5 mg/kg of PPD or PPT was intraperitoneally administered to C57BL/6 mice (9-week old, weight: about 25 g) once a day for 4 days. Then, the brain of the mouse was removed and the hippocampus and cortex were separated therefrom. The amounts of synaptophysin, a protein marker of synaptic vesicle, in the hippocampus and cortex were quantified with Western blotting and an image analysis with a densitometer (LAS100, Fujifilm, Japan) employing a synaptophysin-specific antibody (Cat #902 314, Boehringer Mannheim, Germany).

[1] = test system: neuroblastoma B103 cell line; experiment: MTT test: apoptosis induced by staurosporin; format: cell-based; conditions: B103 cells, staurosporin-only control = 100%
Description: (§1) 5×10^3 cells of neuroblastoma B103 cell line (donated by Dr. David Schubert of the Salk Institute, USA) were placed in each well of a 96-well plate with 100 μl of DMEM (Dulbecco's Minimal Eagle's Medium) containing 10% fetal bovine serum (FBS), and cultured at 37° C. under 8% CO2 for 1 day. After changing the medium to serum-free DMEM, the cells were treated with various concentrations of test compounds and, 1 hour later, with 25 μM of beta-amyloid (25-35 peptide; US peptide, CA, USA). The cells were cultured at 37° C. for 18 hours, treated with 15 μl of MTT solution [10 mg/ml solution of 3-(4,5-dimethyl-2-thiazolyl)-2,5-diphenyl-2H-tetrazolium bromide in phosphate buffered saline (PBS)], and allowed to react at 37° C. for 3 to 4 hours. 100 μl of lysis buffer (10% SDS, 50% dimethylformamide, pH 4.7) was added to the wells, and the cells were cultured overnight at room temperature and relative humidity of 90%. Optical density (OD) of each well was measured at […] and 630 nm, respectively, using a scanning multiwell spectrophotometer, and then the OD value at 630 nm was subtracted from that at 570 nm.
Further, in order to examine whether compounds originating from ginseng can block apoptosis, […], and the survival rates of the neural cells were determined.

[2] = test system: neuroblastoma B103 cell line; experiment: MTT test: anti-oxidative effect, H2O2 in place of beta-amyloid; format: cell-based; conditions: B103 cells, H2O2-only control = 100%
Description: as §1
In order to examine whether compounds originating from ginseng can block oxidative stress, the procedure of Example 1 was repeated except for using 1 μM of H2O2 in place of beta-amyloid, and the survival rates of the neural cells were determined.

[3] = test system: neuroblastoma B103 cell line; experiment: MTT test: preventing the toxicity of beta-amyloid; format: cell-based; conditions: for Survival rate (%): B103 cells, beta-amyloid-only control = 100%
Description: In order to examine the activities of the compounds prepared in the Reference Example in preventing the toxicity of beta-amyloid, the MTT analysis (Gillardon, F. et al., Brain Research. No. 6: pp. 169-172 (1996)) was carried out as follows.
as §1, with “After changing the medium to serum-free DMEM, the cells were treated with various concentrations of test compounds and, 1 hour later, with 25 μM of beta-amyloid (25-35 peptide; US peptide, CA, USA).” left out
Setting the survival rate of the control group treated only with beta-amyloid as 100%, relative survival rates of the experimental groups treated with compound Y, ginsenosides Mc and Rc, PPD and PPT, respectively, were calculated, and the results are shown in Table 2 and FIG. 1. The obtained values were statistically significant.
When the same procedure as above was repeated except that the cells were treated simultaneously with the test compound and beta-amyloid, or treated with the test compound one hour after the beta-amyloid treatment, the results were almost the same as above.
Further, in order to assess the concentration-dependent activity of a test compound, the above procedure was repeated using PPT at concentrations ranging from […].

α-secretase = experiment: sAPPα secretion by Western blotting in B103 cells; format: cell-based; conditions: 1 μM, 18 hours, compared with untreated control, FIG. 5
Description: In order to examine whether the ginseng-originated compounds can inhibit beta-amyloid production, the activity of α-secretase, which cleaves beta-amyloid, was examined.
1×10^6 cells of neuroblastoma B103 cell line (donated by Dr. David Schubert of the Salk Institute, USA), which secretes APP (amyloid precursor protein), were plated on a […] with 100 μl of DMEM medium containing 10% FBS (Fetal Bovine Serum) and cultured overnight at […] under 8% CO2. The medium was replaced with serum-free DMEM (Gibco, USA), and PPD, PPT or PDBu (phorbol-12, 13-dibutyrate: Sigma Co., USA) was added thereto at a concentration of 1 μM each. The cells were cultured further for 18 hours. The supernatant was isolated from each culture solution and concentrated through a concentration filter (viva spin centricon, obtained from: Vivascience, Binbrook Hill, Binbrook, England). The concentrate was prepared to have a protein concentration of 2 μg/ml and then subjected to electrophoresis on a 8% SDS-PAGE gel.
Protein bands on the gel were transferred to PVDF (polyvinylidene fluoride) membrane (Millipore Co., Bedford, Mass., USA) and blocked with 5% skim milk. The bands on PVDF were reacted with sAPPα-specific antibody 6E10 (1:2000 dilution, Cat. No. 320-05, Senetek, Maryland heights, Mo., USA) at room temperature for 2 hours. […] The protein bands were then quantified via image analysis.

[4] = test compound 1 μM + 0.1 μM staurosporin
[5] = test compound 1 μM alone, without staurosporin
[6] = test compound 1 μM alone, without H2O2
[7] = test compound 1 μM + 25 μM beta-amyloid (25-35), 18 hours
[8] = test compound 1 μM alone, without beta-amyloid

| Structure (SMILES) | amount of synaptophysin in cortex (synaptophysin) | amount of synaptophysin in hippocampus (synaptophysin) | Survival rate (%) [1, 4] [%] | Survival rate (%) [1, 5] [%] | Survival rate (%) ([2]; test compound 1 μM + 1 μM H2O2) | Survival rate (%) [2, 6] [%] | Survival rate (%) [3, 7] [%] | Survival rate (%) [3, 8] [%] | sAPPα secretion level (α-secretase) | Survival rate (%) ([1]; test compound 10 μM + 0.1 μM staurosporin) | Survival rate (%) ([1]; test compound 10 μM alone, without staurosporin) | Survival rate (%) ([2]; test compound 10 μM + 1 μM H2O2) | Survival rate (%) ([2]; test compound 10 μM alone, without H2O2) | concentration-dependent inhibitory activity against beta-amyloid toxicity (in words) ([3]; FIG. 2, PPT concentration series) | Survival rate (%) ([3]; test compound 10 μM + 25 μM beta-amyloid (25-35), 18 hours) | Survival rate (%) ([3]; test compound 10 μM alone, without beta-amyloid) |
| --- | --- | --- | --- | --- | --- | --- | --- | --- | --- | --- | --- | --- | --- | --- | --- | --- |
| CC(C)=CCCC(C)(O)[C@H]1CC[C@]2(C)[C@@H]1[C@H](O)C[C@@H]1[C@@]3(C)CC[C@H](O)C(C)(C)[C@@H]3CC[C@]12C (stereo in doubt) [PPD, protopanaxadiol] | no change | significantly increased | 89.2 ± 1.0 | 176.5 ± 3.5 | 219.6 ± 3.0 | 494.3 ± 3.5 | 106.7 ± 6.9 | 137.7 ± 4.8 | higher | – | – | – | – | – | – | – |
| CC(C)=CCC[C@](C)(O)[C@H]1CC[C@]2(C)[C@@H]1[C@H](O)C[C@@H]1[C@@]3(C)CC[C@H](O)C(C)(C)[C@@H]3[C@@H](O)C[C@]12C [PPT, protopanaxatriol] | no change | significantly increased | 107.8 ± 2.3 | 169.7 ± 1.6 | 381.3 ± 0.9 | 516.1 ± 1.6 | 106.6 ± 1.2 | 157.4 ± 3.3 | higher | 104.6 ± 2.7 | 173.1 ± 1.2 | 457.8 ± 2.5 | 516.5 ± 1.2 | began to show its inhibitory activity at the μM level | 119.7 ± 8.5 | 140.3 ± 6.4 |
